Measured values: PubChem BioAssay AID224 (DTP/NCI, 2004)
Toxic doses and inconclusive results are not listed. The calls were made as follows: active = survival T/C of 150% or more; inactive = T/C below 125% in these data.

System: P335 leukemia ip, BDF1 mice, survival T/C %
Experiment: NCI In Vivo Anticancer Drug Screen. Data for tumor model P335 Leukemia (intraperitoneal) in B6D2F1 (BDF1) mice
Conditions: endpoint: mean survival time, higher = longer survival
Description: The antitumor activity of compounds was measured in mice bearing transplantable tumors. Survival or tumor size were measured and the results are expressed as the measurement made in the treated group (T) divided by the measurement made in the vehicle treated control group (C). The tumor model used in this assay is P335 Leukemia (intraperitoneal) in B6D2F1 (BDF1) mice

[1] = dose: 8.0 mg/kg/injection, schedule: Q01DX Z (ip), vehicle: carboxymethylcellulose (CMC)
[2] = dose: 16.0 mg/kg/injection, schedule: Q01DX Z (ip), vehicle: carboxymethylcellulose (CMC)
[3] = dose: 31.0 mg/kg/injection, schedule: Q01DX Z (ip), vehicle: carboxymethylcellulose (CMC)
[4] = dose: 125.0 mg/kg/injection, schedule: Q01DX Z (ip), vehicle: carboxymethylcellulose (CMC)

Measured: T/C

CC(=O)OCC1OC(n2ncc(=O)[nH]c2=O)C(OC(C)=O)C1OC(C)=O (centres undefined)
inactive: dose: 25.0 mg/kg/injection, schedule: Q01DX Z (ip), vehicle: other 120 % of control | dose: 50.0 mg/kg/injection, schedule: Q01DX Z (ip), vehicle: other 109 % of control | dose: 99.0 mg/kg/injection, schedule: Q01DX Z (ip), vehicle: other 114 % of control | dose: 187.5 mg/kg/injection, schedule: Q01DX Z (ip), vehicle: other 124 % of control | dose: 188.0 mg/kg/injection, schedule: Q01DX Z (ip), vehicle: other 114 % of control

CCCCn1cnc2c(=S)nc[nH]c21
inactive: dose: 0.4 mg/kg/injection, schedule: Q01DX Z (ip), vehicle: carboxymethylcellulose (CMC) 89 % of control | dose: 0.8 mg/kg/injection, schedule: Q01DX Z (ip), vehicle: carboxymethylcellulose (CMC) 87 % of control | dose: 1.6 mg/kg/injection, schedule: Q01DX Z (ip), vehicle: carboxymethylcellulose (CMC) 87 % of control

CCOC(N)=O
inactive: dose: 63.0 mg/kg/injection, schedule: Q01DX Z (ip), vehicle: saline 95 % of control | dose: 93.75 mg/kg/injection, schedule: Q01DX Z (ip), vehicle: saline 109 % of control | dose: 125.0 mg/kg/injection, schedule: Q01DX Z (ip), vehicle: saline 108 % of control | dose: 250.0 mg/kg/injection, schedule: Q01DX Z (ip), vehicle: saline 95 % of control | dose: 500.0 mg/kg/injection, schedule: Q01DX Z (ip), vehicle: saline 112 % of control

O=C1C(NC(=O)C2CCCCC2)=C(N2CC2)C(=O)C(NC(=O)C2CCCCC2)=C1N1CC1
inactive: dose: 150.0 mg/kg/injection, schedule: Q01DX Z (ip), vehicle: carboxymethylcellulose (CMC) 103 % of control | dose: 300.0 mg/kg/injection, schedule: Q01DX Z (ip), vehicle: carboxymethylcellulose (CMC) 101 % of control | dose: 600.0 mg/kg/injection, schedule: Q01DX Z (ip), vehicle: carboxymethylcellulose (CMC) 106 % of control

Clc1ncnc2nc[nH]c12
inactive: [1] 89 % of control | [2] 101 % of control | [3] 89 % of control | dose: 31.25 mg/kg/injection, schedule: Q01DX Z (ip), vehicle: carboxymethylcellulose (CMC) 110 % of control | dose: 62.5 mg/kg/injection, schedule: Q01DX Z (ip), vehicle: carboxymethylcellulose (CMC) 101 % of control | [4] 110 % of control

NC(N)=Nc1nc2ccccc2o1
inactive: dose: 2.0 mg/kg/injection, schedule: Q01DX Z (ip), vehicle: carboxymethylcellulose (CMC) 92 % of control | [1] 90 % of control | [2] 90 % of control | [3] 94 % of control | dose: 63.0 mg/kg/injection, schedule: Q01DX Z (ip), vehicle: carboxymethylcellulose (CMC) 94 % of control | [4] 86 % of control

CC(=O)O[C@]1(C(C)=O)CC[C@H]2[C@@H]3C[C@H](C)C4=CC(=O)C=C[C@]4(C)[C@@]3(F)[C@@H](O)C[C@@]21C
inactive: dose: 0.63 mg/kg/injection, schedule: Q01DX Z (sc), vehicle: steriod suspending solution 107 % of control | dose: 1.25 mg/kg/injection, schedule: Q01DX Z (sc), vehicle: steriod suspending solution 98 % of control | dose: 2.5 mg/kg/injection, schedule: Q01DX Z (sc), vehicle: steriod suspending solution 103 % of control | dose: 5.0 mg/kg/injection, schedule: Q01DX Z (sc), vehicle: steriod suspending solution 90 % of control | dose: 10.0 mg/kg/injection, schedule: Q01DX Z (sc), vehicle: steriod suspending solution 119 % of control | dose: 20.0 mg/kg/injection, schedule: Q01DX Z (sc), vehicle: steriod suspending solution 87 % of control

Nc1ncnc2c1ccn2C1OC(CO)C(O)C1O (centres undefined)
inactive: dose: 0.08 mg/kg/injection, schedule: Q01DX Z (ip), vehicle: carboxymethylcellulose (CMC) 110 % of control | dose: 0.16 mg/kg/injection, schedule: Q01DX Z (ip), vehicle: carboxymethylcellulose (CMC) 97 % of control | dose: 0.31 mg/kg/injection, schedule: Q01DX Z (ip), vehicle: carboxymethylcellulose (CMC) 95 % of control | dose: 0.32 mg/kg/injection, schedule: Q01DX Z (ip), vehicle: carboxymethylcellulose (CMC) 121 % of control | dose: 1.25 mg/kg/injection, schedule: Q01DX Z (ip), vehicle: carboxymethylcellulose (CMC) 93 % of control
